Earlier results in patent US20240156825A1, “USE OF SELECTIVE VEGFR2 AND FGFR1 INHIBITORS” (Fountain Therapeutics Inc., priority 2022, published 2024).
Read-outs that look alike come from different tables or passages of the source.

What was measured:
VEGFR2 = VEGFR2 (Homo sapiens, UniProt P35968); details: reported IC50 to VEGFR2, read-out: VEGFR2 IC50_μM, cited from earlier work
any gene target = details: read-out: Min IC50_μM, cited from earlier work
[1] = next lowest IC50 value to any gene target
[2] = Table 2, lowest reported IC50 to any gene target
[3] = lowest reported IC50 to any gene target

VEGFR2, sequence (P35968 20-1356, species assumed): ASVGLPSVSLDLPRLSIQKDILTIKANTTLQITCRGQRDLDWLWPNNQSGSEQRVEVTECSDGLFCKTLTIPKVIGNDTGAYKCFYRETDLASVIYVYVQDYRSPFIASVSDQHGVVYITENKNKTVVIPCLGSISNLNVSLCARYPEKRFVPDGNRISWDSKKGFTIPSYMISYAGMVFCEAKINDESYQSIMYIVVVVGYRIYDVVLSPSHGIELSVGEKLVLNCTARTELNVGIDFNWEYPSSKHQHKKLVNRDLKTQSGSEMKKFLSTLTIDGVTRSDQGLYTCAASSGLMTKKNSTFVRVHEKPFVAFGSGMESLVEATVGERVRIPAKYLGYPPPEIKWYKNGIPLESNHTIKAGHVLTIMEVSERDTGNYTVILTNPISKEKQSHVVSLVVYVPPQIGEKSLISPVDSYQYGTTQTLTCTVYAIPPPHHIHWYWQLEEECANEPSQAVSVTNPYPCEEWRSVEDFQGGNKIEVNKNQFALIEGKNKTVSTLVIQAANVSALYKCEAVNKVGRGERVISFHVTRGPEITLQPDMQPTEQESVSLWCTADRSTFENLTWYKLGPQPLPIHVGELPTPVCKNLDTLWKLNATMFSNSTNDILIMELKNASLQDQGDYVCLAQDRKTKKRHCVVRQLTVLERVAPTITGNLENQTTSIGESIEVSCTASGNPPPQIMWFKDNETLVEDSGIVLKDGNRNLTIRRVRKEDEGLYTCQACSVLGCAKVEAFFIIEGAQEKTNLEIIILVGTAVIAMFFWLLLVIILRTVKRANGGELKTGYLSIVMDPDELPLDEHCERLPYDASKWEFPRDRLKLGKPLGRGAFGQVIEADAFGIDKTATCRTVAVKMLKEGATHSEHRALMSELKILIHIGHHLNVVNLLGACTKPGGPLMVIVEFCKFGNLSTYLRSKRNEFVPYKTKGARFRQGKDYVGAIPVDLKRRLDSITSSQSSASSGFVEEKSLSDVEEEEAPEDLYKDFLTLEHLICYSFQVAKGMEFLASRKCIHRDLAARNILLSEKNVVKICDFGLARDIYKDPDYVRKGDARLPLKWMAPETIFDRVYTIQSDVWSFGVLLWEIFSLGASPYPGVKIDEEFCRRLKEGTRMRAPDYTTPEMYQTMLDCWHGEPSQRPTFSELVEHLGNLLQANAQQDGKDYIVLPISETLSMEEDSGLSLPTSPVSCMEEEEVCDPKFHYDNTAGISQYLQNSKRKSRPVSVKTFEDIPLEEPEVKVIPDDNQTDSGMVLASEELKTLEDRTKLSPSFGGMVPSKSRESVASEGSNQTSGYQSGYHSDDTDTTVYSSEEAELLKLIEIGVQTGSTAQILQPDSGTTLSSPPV

Row | SMILES | IC50 (any gene target; [1]) | IC50 (any gene target; [2]) | further results
1 | Oc1cc(O)c2cc(O)c(-c3cc(O)c(O)c(O)c3)[o+]c2c1 [compound 68245] | 6.27 nM | – | IC50 (VEGFR2): 5.09 nM
2 | CN1CC(=Cc2ccccn2)C(=O)C(=Cc2ccccn2)C1 [compound 2132479] | 1900 nM | – | IC50 (VEGFR2): 1300 nM
3 | COc1cc2c(Nc3ccc(Cl)cc3F)ncnc2cc1OCCN1CCN(C)CC1 [compound 4913175] | 100 nM | – | IC50 (VEGFR2): 30 nM
4 | COCCOc1cc2ncnc(Nc3ccc(Cl)cc3F)c2cc1OC [compound 5329011] | 40 nM | – | IC50 (VEGFR2): 7 nM
5 | COCCOc1cc2ncnc(Nc3cc(O)c(Cl)cc3F)c2cc1OC [compound 5329013] | – | – | IC50 (VEGFR2; Table 3, selective inhibitors of VEGFR2): 2 nM; IC50 (any gene target; next lowest IC50 value to any gene target, Table 3): 2 nM
6 | COc1cc2c(Nc3ccc(Cl)cc3F)ncnc2cc1OCCN1CCOCC1 [compound 5329019] | 300 nM | – | IC50 (VEGFR2): 40 nM
7 | COc1cc2c(Nc3ccc(Cl)cc3F)ncnc2cc1OCCCN1CCOCC1 [compound 5329020] | 50 nM | – | IC50 (VEGFR2): 9 nM
8 | COc1cc2c(Nc3ccc(Cl)cc3F)ncnc2cc1OCCN(C)c1ccncc1 [compound 5329026] | 100 nM | – | IC50 (VEGFR2): 6 nM
9 | COc1cc2c(Nc3ccc(Br)cc3F)ncnc2cc1OCCn1ccnn1 [compound 5329032] | – | – | IC50 (VEGFR2): 30 nM
10 | COc1cc2c(Nc3ccc(C#N)cc3F)ncnc2cc1OC/C=C/CN1CCCC1 [compound 5329040] | 500 nM | – | IC50 (VEGFR2): 230 nM
11 | COc1cc2c(Nc3ccc(C)cc3F)ncnc2cc1OCC1CCN(C)CC1 [compound 5329042] | 65 nM | – | IC50 (VEGFR2): 25 nM
12 | COc1cc2c(Nc3c(F)cc(Cl)cc3F)ncnc2cc1OCC1CCN(C)CC1 [compound 5329045] | 60 nM | – | IC50 (VEGFR2): 25 nM
13 | COc1cc2c(Nc3c(F)cc(Br)cc3F)ncnc2cc1OCC1CCN(C)CC1 [compound 5329046] | 100 nM | – | IC50 (VEGFR2): 10 nM
14 | COc1cc2c(Nc3ccc(C)cc3F)ncnc2cc1OCC1CCNCC1 [compound 5329049] | 250 nM | – | IC50 (VEGFR2): 30 nM
15 | COc1cc2c(Nc3c(F)cc(Cl)cc3F)ncnc2cc1OCC1CCNCC1 [compound 5329050] | 100 nM | – | IC50 (VEGFR2): 40 nM
16 | COc1cc2c(Nc3c(F)cc(Br)cc3F)ncnc2cc1OCC1CCNCC1 [compound 5329051] | 70 nM | – | IC50 (VEGFR2): 15 nM
17 | COc1cc2c(Nc3ccc(Cl)cc3F)ncnc2cc1OCCC1CCN(C)CC1 [compound 5329052] | 70 nM | – | IC50 (VEGFR2): 55 nM
18 | COc1cc2c(Nc3ccc(Br)cc3F)ncnc2cc1OCCC1CCN(C)CC1 [compound 5329053] | 60 nM | – | IC50 (VEGFR2): 6 nM
19 | COc1cc(OC)cc(N(CCN(Cc2ccc(N)cc2)C(C)C)c2ccc3ncc(-c4cnn(C)c4)nc3c2)c1 [compound 89447175] | – | 5.89 nM | –
20 | COc1cc(OC)cc(N(CCCN2C[C@@H](C)O[C@@H](C)C2)c2ccc3ncc(-c4cnn(C)c4)nc3c2)c1 [compound 89447204] | – | 3.55 nM | –
21 | COc1cc(OC)cc(N(CCN2[C@@H](C)CC[C@@H]2C)c2ccc3ncc(-c4cnn(C)c4)nc3c2)c1 [compound 89447247] | – | – | IC50 (any gene target; [3]): 3.8 nM
22 | COc1cc(OC)cc(N(CC#Cc2cc(C(N)=O)ccn2)c2ccc3ncc(-c4cnn(C)c4)nc3c2)c1 [compound 89447328] | – | 2.46 nM | –
23 | COc1cccnc1C#CCN(c1ccc2ncc(-c3cnn(C)c3)nc2c1)c1c(Cl)c(OC)cc(OC)c1Cl [compound 89447340] | – | 5.89 nM | –

Row | SMILES | IC50 (any gene target; [1]) | IC50 (any gene target; [2]) | further results
24 | COc1cc(OC)cc(N(CC#Cc2cc(CO)ccn2)c2ccc3ncc(-c4cnn(C)c4)nc3c2)c1 [compound 89447343] | – | 3.39 nM | –
25 | COc1cc(OC)cc(N(CC#Cc2nccnc2Cl)c2ccc3ncc(-c4cnn(C)c4)nc3c2)c1 [compound 89447345] | – | 15.8 nM | –
26 | COc1cc(OC)cc(N(CCN2CCN(C(=O)C3CC3)CC2)c2ccc3ncc(-c4cnn(C)c4)nc3c2)c1 [compound 89447346] | – | – | IC50 (any gene target; [3]): 7.76 nM
27 | COc1cc(OC)cc(N(CCCN2[C@H](C)CC[C@@H]2C)c2ccc3ncc(-c4cnn(C)c4)nc3c2)c1 [compound 89447423] | – | – | IC50 (any gene target; [3]): 3.24 nM
28 | COc1cc(OC)cc(N(CC#Cc2cnccn2)c2ccc3ncc(-c4cnn(C)c4)nc3c2)c1 [compound 89447472] | – | – | IC50 (any gene target; [3]): 17.8 nM
29 | COc1cc(OC)cc(N(CC#Cc2cc(N)ccn2)c2ccc3ncc(-c4cnn(C)c4)nc3c2)c1 [compound 89447499] | – | 2.95 nM | –
30 | COc1cc(OC)cc(N(CC#CC2(O)CCNCC2)c2ccc3ncc(-c4cnn(C)c4)nc3c2)c1 [compound 89447547] | – | – | IC50 (any gene target; [3]): 7.08 nM
31 | COc1cc(OC)cc(N(CCNC(C)C)c2ccc3ncc(-c4cnn(C)c4)nc3c2)c1 [compound 118014709] | – | 2.29 nM | –
32 | C=CC(=O)N1CCN(CCCn2c(=O)c(-c3c(Cl)c(OC)cc(OC)c3Cl)cc3cnc(NC)nc32)CC1 [compound 118295624] | – | 1.3 nM | –
33 | COc1cc2nccc(Oc3ccc(NC(=O)Nc4cc(C)on4)c(Cl)c3)c2cc1OC [compound 118737468] | 3.26 nM | – | –
34 | c1ccc(-c2cnc3c(Nc4ccc(N5CCCCC5)cc4)cncc3n2)cc1 [compound 127030424] | 2340 nM | – | –
35 | CNCCN(c1cc(OC)cc(OC)c1)c1ccc2ncc(-c3cnn(CC(=O)NC)c3)nc2c1 [compound 134131862] | – | 2.4 nM | –
36 | CNC(=O)Cn1cc(-c2cnc3ccc(N(CCNC(C)C)c4cc(OC)cc(OC)c4)cc3n2)cn1 [compound 134132789] | – | 3.39 nM | –
37 | CNCCN(c1cc(OC)cc(OC)c1)c1ccc2ncc(-c3cnn(C(C)C)c3)nc2c1 [compound 134133926] | – | 2.88 nM | –
38 | COc1cc(OC)cc(N(CCCN2[C@H](C)CC[C@@H]2C)c2ccc3ncc(-c4cnn(C)c4)nc3c2)c1 [compound 134135888] | – | 2.51 nM | –
39 | COc1cc(OC)cc(N(CCNC(C)C)c2ccc3ncc(-c4c(C)nn(C)c4C)nc3c2)c1 [compound 134138098] | – | 10.7 nM | –
40 | COc1cccc(N(CCNC(C)C)c2ccc3ncc(-c4cnn(C)c4)nc3c2)c1 [compound 134138612] | – | – | IC50 (any gene target; [3]): 7.24 nM
41 | COc1cc(F)cc(N(CCCN2CCCC2)c2ccc3ncc(-c4cn[nH]c4)nc3c2)c1 [compound 134140310] | – | 1.86 nM | –
42 | CNC1CCN(CCCN(c2cc(OC)cc(OC)c2)c2ccc3ncc(-c4cnn(C)c4)nc3c2)C1 (stereo not drawn) [compound 134140450] | – | 2.24 nM | –
43 | COc1cc(OC)cc(N(CCNC(C)C)c2ccc3ncc(-c4cnn(CC5CCOCC5)c4)nc3c2)c1 [compound 134141677] | – | 2.19 nM | –
44 | COc1cc(OC)cc(N(CCCN2CCC(F)(F)C2)c2ccc3ncc(-c4cn[nH]c4)nc3c2)c1 [compound 134142457] | – | 10.5 nM | –
45 | COc1cc(OC)cc(N(CCNC(C)C)c2ccc3ncc(-c4cnn(C5CCN(C)CC5)c4)nc3c2)c1 [compound 134142615] | – | 2.95 nM | –
46 | COc1cc(OC)cc(N(CCCN2CCCC2)c2ccc3ncc(-c4cnn(CCO)c4)nc3c2)c1 [compound 134144550] | – | 1.91 nM | –

Row | SMILES | IC50 (any gene target; [1]) | IC50 (any gene target; [2]) | further results
47 | COc1cc(OC)c(C)c(N(CCCN2CCCC2)c2ccc3ncc(-c4cnn(C)c4)nc3c2)c1 [compound 134145340] | – | 3.55 nM | –
48 | COc1cc(OC)cc(N(CCN2CCC[C@H]2C)c2ccc3ncc(-c4cnn(C)c4)nc3c2)c1 [compound 134145938] | – | 1.99 nM | –
49 | COc1cc(OC)cc(N(CCN2CCCCC2C)c2ccc3ncc(-c4cnn(C)c4)nc3c2)c1 (stereo not drawn) [compound 134146514] | – | 2.51 nM | –
50 | COc1cc(OC)cc(N(CCCN2CCC[C@H]2C)c2ccc3ncc(-c4cnn(C)c4)nc3c2)c1 [compound 134146811] | – | 2.14 nM | –
51 | COc1cc(OC)c(C)c(N(CCNC(C)C)c2ccc3ncc(-c4cnn(C)c4)nc3c2)c1 [compound 134147170] | – | 6.46 nM | –
52 | COc1cc(OC)cc(N(CCNC(C)C)c2ccc3ncc(-c4cn[nH]c4)nc3c2)c1 [compound 134148952] | – | 3.39 nM | –
53 | CNCC(O)CN(c1cc(OC)cc(OC)c1)c1ccc2ncc(-c3cnn(C)c3)nc2c1 (stereo not drawn) [compound 134149546] | – | – | IC50 (any gene target; [3]): 2.82 nM
54 | COc1cc(OC)cc(N(CCCN2CCCC2(C)C)c2ccc3ncc(-c4cnn(C)c4)nc3c2)c1 [compound 134151320] | – | – | IC50 (any gene target; [3]): 1.91 nM
55 | COc1cc(OC)cc(N(CCN2CCCC2)c2ccc3ncc(-c4cn[nH]c4)nc3c2)c1 [compound 134153401] | – | 2.46 nM | –
56 | COc1ccc(Cl)c(N(CCNC(C)C)c2ccc3ncc(-c4cnn(C)c4)nc3c2)c1 [compound 134153603] | – | 3.71 nM | –
57 | COc1cc(F)cc(N(CCNC(C)C)c2ccc3ncc(-c4cn[nH]c4)nc3c2)c1 [compound 134153940] | – | 2.09 nM | –
58 | COc1cc(OC)cc(N(CCN2CCC(O)C2)c2ccc3ncc(-c4cnn(C)c4)nc3c2)c1 (stereo not drawn) [compound 134154939] | – | – | IC50 (any gene target; [3]): 1.82 nM
59 | COc1cc(OC)cc(N(CCCN2CCC(N3C[C@@H](C)O[C@@H](C)C3)C2)c2ccc3ncc(-c4cnn(C)c4)nc3c2)c1 (stereo partly drawn) [compound 134155786] | – | 4.57 nM | –
60 | COc1cc(OC)cc(N(CCN2CCCC2)c2ccc3ncc(-c4cnn(C)c4)nc3c2)c1 [compound 134156523] | – | 1.78 nM | –
61 | COc1ccc(OC)c(N(CCCN2CCCC2)c2ccc3ncc(-c4cnn(C)c4)nc3c2)c1 [compound 134157453] | – | – | IC50 (any gene target; [3]): 38 nM
62 | COc1cc(OC)cc(N(CCNC(C)C)c2ccc3ncc(-c4cn[nH]c4)nc3c2)c1 [compound 134157816] | – | 2.82 nM | –
63 | COc1cc(OC)cc(N(CCN2CCC(N)C2)c2ccc3ncc(-c4cnn(C)c4)nc3c2)c1 (stereo not drawn) [compound 134157853] | – | 1.99 nM | –
64 | CCN(Cc1ccccc1)c1nc(O)nc(Nc2ccc3ncsc3c2)n1 [compound 135509841] | 400 nM | – | –
65 | CC(C)(C)NC(=O)Nc1ccc2[nH]nc(-c3nc4ccc(N5CCC(N6CCCCC6)CC5)cc4[nH]3)c2c1 [compound 135819982] | – | – | IC50 (any gene target; [3]): 1 nM
66 | CC(C)n1nc(-c2ccc3cc(O)ccc3c2)c2c(N)ncnc21 [compound 135947979] | 20 nM | – | –
67 | COC(=O)c1ccc2c(C(=Nc3ccc(N4CCC(CN5CCN(C)CC5)C4=O)cc3)c3ccccc3)c(O)[nH]c2c1 (stereo not drawn) [compound 136299423] | 45 nM | – | –
